Experimental data: US7998963B2, “Arylpiperazine derivatives and uses thereof” (Roche Palo Alto LLC, priority 2008, dated 2011)

How the values were obtained:
[1] = target: T1, human norepinephrine transporter (hNET) (Homo sapiens, UniProt P23975); assay: hNET scintillation proximity assay (SPA), competition with [3H]-Nisoxetine; format: binding; conditions: membranes of HEK-293 cells expressing recombinant hNET, Ki by Cheng-Prusoff
T1 construct: expressed in transfected cells; host or cells: HEK-293 (Clone: HEK-hNET #2)
Protocol: Screening for Compounds Active at Human Norepinephrine Transporter (HNET) Using a Scintillation Proximity Assay (SPA)
This assay was used to determine the affinity of ligands for the hNET transporter by competition with [^3H]-Nisoxetine. As in the hSERT assay of the above example, receptor-containing membranes were pre-coupled to the SPA beads and the binding of the appropriate radioligand to the transporter was measured. The light emission was proportional to the amount of bound radioligand, with unbound radioligand producing no signal. […]
Cell membranes were prepared using a membrane preparation buffer of 50 mM TRIS (pH 7.4). […] After a second centrifugation, the pellet was re-homogenized and brought to a final volume determined during the assay. […]
^3[H] […] The mixtures were allowed to stand at room temperature for one hour, and were then counted on a Packard TopCount LCS, a generic SPA counting protocol settings (Energy Range: Low, Efficiency Mode: Normal, Region A: 1.50-35.00, Region B: 1.50-256.00, Count Time (min.): 0.40, Background Subtract: none, Half-Life Correction: no, Quench Indicator: tSIS, Platemap blank subtraction: No, Cross talk reduction: Off).
(§1) The % inhibition was calculated for each compound tested [(Compound CPM at maximum concentration-Non-Specific CPM)/Total CPM*100]. […]

[2] = target: T2, human dopamine transporter (hDAT) (Homo sapiens, UniProt Q01959); assay: hDAT scintillation proximity assay (SPA), competition with [3H]-Vanoxerine; format: binding; conditions: HEK-293 cells expressing recombinant hDAT, Ki by Cheng-Prusoff
T2 construct: expressed in transfected cells; host or cells: HEK-293
Protocol: Screening for Compounds Active at Human Dopamine Transporter Using a Scintillation Proximity Assay (SPA)
This assay was used to determine the affinity of ligands for the dopamine transporter by competition with [^3H]-Vanoxerine.
HEK-293 cells (Tatsumi et al., Eur. J. Pharmacol. 1997, 30, 249-258) stably expressing recombinant hDAT were maintained with media (DMEM hi glucose with 10% FBS, 300 μg/ml G418 and 2 mM L-Glutamine) and incubated at 37° C. with 5% CO2. Cells were plated four hours prior to experiment by placing approximately 30,000 cells per well (in PBS) on white, opaque Cell-Tak coated 96 well plates. Extra buffer was apriated from the cell plates using an ELx405 plate washer.
^3[H] vanoxerine (GBR 12909) radioligand, specific activity approximately 59 Ci/mmol, stock concentration, 400 nM, and 50 mM Tris-HCl, 300 mM NaCl, (pH 7.4) buffers were used for Scintillation Proximity Assay IC50/Ki determination. […]
as §1
[formula] where max=total binding, min=non specific binding, x=concentration (M) of the tested compound and n=Hill slope. The inhibition dissociation constant (Ki) of each compound was determined according to the method of Cheng-Prusoff and then converted into negative logarithm (pKi) of the Ki.

T1 sequence (P23975 whole entry): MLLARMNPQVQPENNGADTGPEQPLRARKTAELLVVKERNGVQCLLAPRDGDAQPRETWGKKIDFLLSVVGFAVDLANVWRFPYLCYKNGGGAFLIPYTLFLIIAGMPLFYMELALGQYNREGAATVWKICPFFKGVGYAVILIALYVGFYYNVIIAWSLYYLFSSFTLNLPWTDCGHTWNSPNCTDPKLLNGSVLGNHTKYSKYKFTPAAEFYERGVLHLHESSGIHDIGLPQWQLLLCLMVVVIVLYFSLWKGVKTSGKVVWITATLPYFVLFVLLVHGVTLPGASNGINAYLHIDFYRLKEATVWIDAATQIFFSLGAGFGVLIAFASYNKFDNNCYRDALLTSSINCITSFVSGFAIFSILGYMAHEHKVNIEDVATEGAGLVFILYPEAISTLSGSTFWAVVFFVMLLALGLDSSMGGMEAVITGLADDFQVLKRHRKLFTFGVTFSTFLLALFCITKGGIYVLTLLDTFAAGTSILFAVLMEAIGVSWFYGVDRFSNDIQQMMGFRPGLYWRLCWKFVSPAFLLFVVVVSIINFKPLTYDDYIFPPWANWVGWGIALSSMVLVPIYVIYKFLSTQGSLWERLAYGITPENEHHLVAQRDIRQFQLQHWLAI
T2 sequence (Q01959 whole entry): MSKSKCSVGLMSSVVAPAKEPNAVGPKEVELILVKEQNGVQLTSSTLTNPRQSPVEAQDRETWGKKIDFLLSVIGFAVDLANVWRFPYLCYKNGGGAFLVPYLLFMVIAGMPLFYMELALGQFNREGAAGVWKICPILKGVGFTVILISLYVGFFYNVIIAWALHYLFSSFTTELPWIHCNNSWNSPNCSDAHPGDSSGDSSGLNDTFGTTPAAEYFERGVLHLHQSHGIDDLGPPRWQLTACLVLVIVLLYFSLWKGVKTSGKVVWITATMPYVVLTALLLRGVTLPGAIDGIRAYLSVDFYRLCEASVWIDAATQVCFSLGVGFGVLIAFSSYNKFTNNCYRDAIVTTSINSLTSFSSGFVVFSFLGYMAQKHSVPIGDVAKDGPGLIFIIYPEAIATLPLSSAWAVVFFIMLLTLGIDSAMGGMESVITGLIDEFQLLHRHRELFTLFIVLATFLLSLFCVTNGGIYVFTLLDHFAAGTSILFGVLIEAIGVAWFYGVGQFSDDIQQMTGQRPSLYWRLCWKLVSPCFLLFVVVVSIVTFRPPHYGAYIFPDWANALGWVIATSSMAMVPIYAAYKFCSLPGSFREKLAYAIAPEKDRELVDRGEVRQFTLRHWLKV

Row | Ki [1] [nM] | SMILES | Ki [2] [nM]
1 | ~6.31 | c1ccc(OCC2CNCCN2c2ccc3[nH]ncc3c2)cc1 (centres unmarked) [5-(2-Phenoxymethyl-piperazin-1-yl)-1H-indazole] | –
2 | – | c1cc2[nH]ncc2cc1N1CCNC[C@H]1CCC1CC1 [5-[(R)-2-(2-Cyclopropyl-ethyl)-piperazin-1-yl]-1H-indazole] | ~12.6
